Experimental data as given in US7459449B2 (priority 2004, dated 2008).
Where a name gives a salt, the structure may show the parent alone. Read-outs that look alike come from different tables or passages of the source.

Key:
[1] = Tendency to form solvates (acetone); assay type: physicochemical; conditions: generally acetone as the solvent
Source text: Additionally the inventive salts are not prone to forming solvates. Solvates with organic solvents such as acetone, dichloromethane, dioxane, etc., are inconvenient in pharmaceutical applications because of the toxicity of the solvent. […] A typical example of such a solvate salt is the acetone solvate of olanzapine succinate. The solvent may nevertheless be present in the wet cake of the crude material after isolation in solid state, but a solvent-free product should be obtained by ordinary means of drying. A solvent-free salt (i.e. less than 0.5%, preferably less than 0.1%, of the solvent present) is particularly preferred as the absence of the solvent is advantageous for pharmaceutical applications.

Stability against light = assay type: physicochemical
Hygroscopicity = assay type: physicochemical
[2] = Water solubility test at 10 mg/ml; conditions: thermodynamic from solid
[3] = cited from earlier work
[4] = Isolation of the olanzapine salt in solid form; assay type: physicochemical
[5] = Stability of 1% aqueous solution against precipitation; conditions: for Is 1% solution stable from precipitation?: 1% aqueous solution, at least 12 to 24 hours (overnight)
Source text: (§1) A failure was considered to be 1% or more of impurities being formed; i.e. if 1% or more formed, then the salt is reported as “No,” not stable, for the corresponding test.

[6] = Solid state stability (impurity formation on storage); assay type: physicochemical; conditions: short period of storage
Source text: as §1

Row | Molecule | Is there low tendency to form solvates? [1] | Readily isolatable in solid form? [4] | Is 1% solution stable from precipitation? [5] | further results
1 | Cc1cc2c(s1)Nc1ccccc1N=C2N1CCN(C)CC1.O=C(O)C(O)C(O)C(=O)O.O=C(O)C(O)C(O)C(=O)O [Di-L-tartrate, reference compound] | No | – | – | –
2 | Cc1cc2c(s1)Nc1ccccc1N=C2N1CCN(C)CC1.O=C(O)C=CC(=O)O.O=C(O)C=CC(=O)O [Dimaleate, reference compound] | No | – | – | –
3 | Cc1cc2c(s1)Nc1ccccc1N=C2N1CCN(C)CC1.Cc1cc2c(s1)Nc1ccccc1N=C2N1CCN(C)CC1.O=C(O)CCCCC(=O)O [Hemiadipate, Olanzapine Hemi-Adipate] | Yes | – | – | –
4 | Cc1cc2c(s1)Nc1ccccc1N=C2N1CCN(C)CC1.Cc1cc2c(s1)Nc1ccccc1N=C2N1CCN(C)CC1.O=S(=O)(O)O [Hemisulfate, reference compound] | No | – | – | –
5 | Cc1cc2c(s1)Nc1ccccc1N=C2N1CCN(C)CC1.O=C(O)CC(=O)O [Hydrogenmalonate, Olanzapine Hydrogenmalonate] | Yes | – | – | stability against the action of light (Stability against light): sufficiently stable against the action of light; hygroscopicity (Hygroscopicity): generally non-hygroscopic
6 | CC(O)C(=O)O.Cc1cc2c(s1)Nc1ccccc1N=C2N1CCN(C)CC1 [Mono-L-lactate, Olanzapine Lactate] | Yes | – | – | –
7 | Cc1cc2c(s1)Nc1ccccc1N=C2N1CCN(C)CC1.O=C(O)c1ccccc1 [Monobenzoate, Olanzapine Benzoate] | Yes | – | – | stability against the action of light (Stability against light): sufficiently stable against the action of light; hygroscopicity (Hygroscopicity): generally non-hygroscopic
8 | CCS(=O)(=O)O.Cc1cc2c(s1)Nc1ccccc1N=C2N1CCN(C)CC1 [Monoesylate, Olanzapine Esylate] | Yes | – | – | –
9 | Cc1cc2c(s1)Nc1ccccc1N=C2N1CCN(C)CC1 [Monohydrochloride, Olanzapine Monohydrochloride] | – | – | – | solubility [2]: > 10000 µg/mL
10 | Cc1cc2c(s1)Nc1ccccc1N=C2N1CCN(C)CC1.O=S(=O)(O)O [Monosulfate, Olanzapine Hydrogensulfate] | No | – | – | –
11 | Cc1cc2c(s1)Nc1ccccc1N=C2N1CCN(C)CC1.O.O=C(O)c1cc2ccccc2c(Cc2c(O)c(C(=O)O)cc3ccccc23)c1O [Pamoate, olanzapine pamoate, reference compound] | No | – | – | water solubility (in words), background [3]: insoluble in water
12 | Mandelate [reference compound] | – | No | – | –
13 | Olanzapine | – | – | – | water solubility (in words), background [3]: insoluble in water; solubility at pH 6.8 ([3]; pH 6.8, marketed free base): 0.02 mg/ml
14 | Olanzapine Acetate [Monoacetate] | Yes | Yes | No | –
15 | Olanzapine Besylate [Monobesylate] | Yes | Yes | No | –
16 | Olanzapine Hemi-Succinate [Hemisuccinate] | No | Yes | No | –
17 | Olanzapine Hemifumarate | No | Yes | No | –
18 | Olanzapine Hydrogenmaleate | Yes | Yes | No | stability against the action of light (Stability against light): sufficiently stable against the action of light; hydrolysis by water (liberation of olanzapine base in aqueous solution) ([5]; aqueous solution): hydrolysable by water; hygroscopicity (Hygroscopicity): generally non-hygroscopic; water solubility (in words) (listed as maleate): good water solubility; water solubility (in words) (listed as olanzapine hydrogenmaleate): soluble in water
19 | Olanzapine Mesylate [Monomesylate] | No | Yes | No | –
20 | Olanzapine Mono-Tartrate [Mono-L-tartrate] | No | Yes | Yes | –
21 | Tosylate [reference compound] | – | No | – | –
22 | olanzapine dibesylate [reference compound] | – | Yes** | – | solid state behaviour on storage [6]: become oily after a short period of storage
23 | olanzapine dimesylate [reference compound] | – | Yes** | – | solid state behaviour on storage [6]: become oily after a short period of storage
